Measurements: paper PMC7822874, “Chemoprotective antimalarials identified through quantitative high-throughput screening of Plasmodium blood and liver stage parasites” (Scientific Reports, 2021)
Like-named read-outs stand apart in the source and are kept apart here.

Tests used:
[1] = tested on: Plasmodium falciparum Dd2 asexual blood stage parasites; assay: microbe, parasite or virus in culture; parameters: species or system Plasmodium falciparum Dd2 in human erythrocytes; single determination (one 11-point concentration-response curve); conditions: Plasmodium falciparum, DD2, Erythrocyte, 72 h; read-out: AC50
[2] = tested on: P. berghei-ANKA-GFP-LucCON liver stage parasites in HepG2-A16-CD81EGFP cells; assay: P. berghei liver stage Pb-Luc assay, Method 1 (UCSD, 1536-well); assay type: cell-based, Plasmodium berghei; conditions: for Max Resp (signal direction of the dose response) / AC50: Method 1; for Max Resp (signal direction of the dose response): Decrease = decreasing P. berghei viability with dose, Increase = increasing signal, Inactive = no dose response; for activity at 1 µM / activity at 3 µM / AC50: Plasmodium berghei; for activity at 1 µM / activity at 3 µM: 48 h
HepG2-A16-CD81EGFP cells = conditions: average of 2 wells; for HepG2 viability signal, 3 uM, repeat 2: nominal 3 uM (10 mM stock), 4.5 uM for 15 mM, 3.6 uM for 12 mM, 6 uM for 20 mM stock
[3] = tested on: luciferase-expressing P. berghei liver stage parasites in HepG2 cells; assay: Inhibition of liver-stage development assay (ILSDA), Method 2 (WRAIR, 96-well); assay type: cell-based, Plasmodium berghei; conditions: for Max Resp (signal direction of the dose response): Method 2, Decrease = decreasing P. berghei viability with dose, Increase = increasing signal, Inactive = no dose response; for AC50: Plasmodium berghei, HepG2, Method 2
in vitro = conditions: human, HepG2-A16-CD81EGFP cells, uninfected
[4] = nominal 1 uM (10 mM stock), […] for 15 mM, 1.2 uM for 12 mM, 2 uM for 20 mM stock, average of 2 wells, 1536-well plate, repeat 1, read-out: Pb-Luc signal, 1 uM, repeat 1
[5] = nominal 1 uM (10 mM stock), […] for 15 mM, 1.2 uM for 12 mM, 2 uM for 20 mM stock, average of 2 wells, 1536-well plate, repeat 2, read-out: Pb-Luc signal, 1 uM, repeat 2
[6] = nominal 1 uM (10 mM stock), […] for 15 mM, 1.2 uM for 12 mM, 2 uM for 20 mM stock, average of 2 wells, 1536-well plate, repeat 3, read-out: Pb-Luc signal, 1 uM, repeat 3
[7] = nominal 3 uM (10 mM stock), 4.5 uM for 15 mM, 3.6 uM for 12 mM, 6 uM for 20 mM stock, average of 2 wells, 1536-well plate, repeat 1, read-out: Pb-Luc signal, 3 uM, repeat 1
[8] = nominal 3 uM (10 mM stock), 4.5 uM for 15 mM, 3.6 uM for 12 mM, 6 uM for 20 mM stock, average of 2 wells, 1536-well plate, repeat 2, read-out: Pb-Luc signal, 3 uM, repeat 2
[9] = nominal 3 uM (10 mM stock), 4.5 uM for 15 mM, 3.6 uM for 12 mM, 6 uM for 20 mM stock, average of 2 wells, 1536-well plate, repeat 3, read-out: Pb-Luc signal, 3 uM, repeat 3
[10] = nominal 1 uM (10 mM stock), […] for 15 mM, 1.2 uM for 12 mM, 2 uM for 20 mM stock
[11] = 1 uM (compounds provided at 10 mM), average of 2 wells on a 1536 well plate, column 11, read-out: Pb-Luc (P. berghei liver stage), % of control, lower concentration, first repeat
[12] = 1 uM (compounds provided at 10 mM), average of 2 wells on a 1536 well plate, column 12, read-out: Pb-Luc (P. berghei liver stage), % of control, lower concentration, second repeat
[13] = 3 uM (compounds provided at 10 mM), average of 2 wells on a 1536 well plate, column 8, read-out: Pb-Luc (P. berghei liver stage), % of control, higher concentration, first repeat
[14] = 3 uM (compounds provided at 10 mM), average of 2 wells on a 1536 well plate, column 9, read-out: Pb-Luc (P. berghei liver stage), % of control, higher concentration, second repeat
[15] = Hill fit, 50% of maximum activity response, read-out: AC50
[16] = log10 of molar AC50 from Hill fit, read-out: Log AC50 (converted)

SMILES: COc1ccc(-c2ccc3ncc(Nc4ccc(C(N)=O)cc4)n3n2)cc1OC [NCGC00412552-01]
- AC50 [1]: 2.43 µM
- Max Resp (signal direction of the dose response) [2]: Inactive
- activity at 1 µM [2, 4]: 38.8%
- activity at 1 µM [2, 5]: 64.3%
- activity at 1 µM [2, 6]: 74.5%
- activity at 3 µM [2, 7]: 2.42%
- activity at 3 µM [2, 8]: 48.9%
- activity at 3 µM [2, 9]: 27.1%
- HepG2 viability signal, 1 uM, repeat 2 (HepG2-A16-CD81EGFP cells; [10]): 102.54%
- HepG2 viability signal, 3 uM, repeat 2 (HepG2-A16-CD81EGFP cells): 100.89%
- Max Resp (signal direction of the dose response) [3]: Inactive
- viability at 48 h, 1 µM (in vitro): 100%
- viability at 48 h, 3 µM (in vitro): 105%

SMILES: Cc1ccc2c(c1)[nH]c1c(N3CCN(Cc4ccccc4)CC3)ncnc12 [MLS000041320-01]
- activity at 1 µM [2, 11]: 23%
- activity at 1 µM [2, 12]: 17%
- activity at 3 µM [2, 13]: 5.3%
- activity at 3 µM [2, 14]: 4%
- Max Resp (signal direction of the dose response) [3]: Inactive
- viability at 48 h, 1 µM (in vitro): 82%
- viability at 48 h, 3 µM (in vitro): 88%

SMILES: Cc1cc(Nc2ccc(Br)c(C)c2)n2nc(C)nc2n1 [MLS000116638-01]
- AC50 [1]: 1.33 µM
- activity at 1 µM ([2]; P. berghei liver stage, 1 µM compound treatment (10 mM stocks), replicate 1, normalized, average of 2 wells on a 1536 well plate, read-out: PbLuc 1uM growth rep1): 32%
- activity at 1 µM ([2]; P. berghei liver stage, 1 µM compound treatment (10 mM stocks), replicate 2, normalized, average of 2 wells on a 1536 well plate, read-out: PbLuc 1uM growth rep2): 25%
- activity at 3 µM ([2]; P. berghei liver stage, 3 µM compound treatment (10 mM stocks), replicate 1, normalized, average of 2 wells on a 1536 well plate, read-out: PbLuc 3uM growth rep1): 9%
- activity at 3 µM ([2]; P. berghei liver stage, 3 µM compound treatment (10 mM stocks), replicate 2, normalized, average of 2 wells on a 1536 well plate, read-out: PbLuc 3uM growth rep2): 12%
- HepG2 1uM growth rep1 (HepG2-A16-CD81EGFP cells; HepG2, 1 µM compound treatment (10 mM stocks), replicate 1, normalized): 91%
- HepG2 1uM growth rep2 (HepG2-A16-CD81EGFP cells; HepG2, 1 µM compound treatment (10 mM stocks), replicate 2, normalized): 87%
- HepG2 3uM growth rep1 (HepG2-A16-CD81EGFP cells; HepG2, 3 µM compound treatment (10 mM stocks), replicate 1, normalized): 86%
- HepG2 3uM growth rep2 (HepG2-A16-CD81EGFP cells; HepG2, 3 µM compound treatment (10 mM stocks), replicate 2, normalized): 89%
- Max Resp (signal direction of the dose response) [3]: Decrease
- AC50 [3, 15]: 0.794 µM
- AC50 [3, 16]: 0.794 µM

SMILES: Cc1ccc(CSCc2ccc(C(=O)NC3CC3)o2)cc1 [MLS001031023-01]
- AC50 [1]: 2.66 µM
- Max Resp (signal direction of the dose response) [3]: Decrease
- AC50 [3, 15]: 0.224 µM
- AC50 [3, 16]: 0.224 µM
- viability at 48 h, 1 µM (in vitro): 93%
- viability at 48 h, 3 µM (in vitro): 88%

SMILES: CCc1ccc(C2Sc3ccccc3N=C3C2=C(O)c2ccccc23)cc1 (centres unmarked) [NCGC00108831-01]
- Max Resp (signal direction of the dose response) [2]: Decrease
- activity at 1 µM [2, 4]: 12.1%
- activity at 1 µM [2, 5]: 58.2%
- activity at 1 µM [2, 6]: 12.7%
- activity at 3 µM [2, 7]: 2.42%
- activity at 3 µM [2, 8]: 50.9%
- activity at 3 µM [2, 9]: 62.2%
- HepG2 viability signal, 1 uM, repeat 2 (HepG2-A16-CD81EGFP cells; [10]): 104.01%
- HepG2 viability signal, 3 uM, repeat 2 (HepG2-A16-CD81EGFP cells): 104.74%
- Max Resp (signal direction of the dose response) [3]: Decrease
- AC50 [3, 15]: 0.398 µM
- AC50 [3, 16]: 0.398 µM
- viability at 48 h, 1 µM (in vitro): 103%
- viability at 48 h, 3 µM (in vitro): 105%

SMILES: N=c1c2ccccc2nnn1-c1ccc(C(F)(F)F)cc1 [MLS000707013-01]
- AC50 [1]: 3.76 µM
- activity at 1 µM [2, 11]: 23%
- activity at 1 µM [2, 12]: 19%
- activity at 3 µM [2, 13]: 12%
- activity at 3 µM [2, 14]: 10%
- Max Resp (signal direction of the dose response) [3]: Decrease
- AC50 [3, 15]: 0.708 µM
- AC50 [3, 16]: 0.708 µM
- viability at 48 h, 1 µM (in vitro): 91%
- viability at 48 h, 3 µM (in vitro): 101%

SMILES: CCn1cc(C(=O)O)c(=O)c2cnc(N3CCN(/C(S)=N/c4ccccc4)CC3)nc21 [MLS000777921-01]
- AC50 [1]: 3.76 µM
- activity at 1 µM [2, 11]: 25%
- activity at 1 µM [2, 12]: 24%
- activity at 3 µM [2, 13]: 3.25%
- activity at 3 µM [2, 14]: 2.6%
- Max Resp (signal direction of the dose response) [3]: Decrease
- AC50 [3, 15]: 2 µM
- AC50 [3, 16]: 2 µM
- viability at 48 h, 1 µM (in vitro): 113%
- viability at 48 h, 3 µM (in vitro): 102%

SMILES: N=c1c2c(n(Cc3ccccc3)c3c1CCC3)CCC2 [MLS000080128-01]
- AC50 [1]: 4.22 µM
- Max Resp (signal direction of the dose response) [3]: Inactive
- viability at 48 h, 1 µM (in vitro): 98%
- viability at 48 h, 3 µM (in vitro): 74%

SMILES: COc1ccc(-c2cc(C(F)(F)F)nc(SCCC(=O)Nc3cc(C)ccc3O)n2)cc1 [NCGC00101472-01]
- AC50 [1]: 1.88 µM
- activity at 1 µM [2, 4]: 38.3%
- activity at 1 µM [2, 5]: 70%
- activity at 1 µM [2, 6]: 108%
- activity at 3 µM [2, 7]: 2.83%
- activity at 3 µM [2, 8]: 48.6%
- activity at 3 µM [2, 9]: 51.1%
- AC50 [2, 15]: 2 µM
- AC50 [2, 16]: 2 µM
- HepG2 viability signal, 1 uM, repeat 1 (HepG2-A16-CD81EGFP cells; nominal 1 uM (10 mM stock), […] for 15 mM, 1.2 uM for 12 mM, 2 uM for 20 mM stock, repeat 1): 98.35%
- HepG2 viability signal, 1 uM, repeat 2 (HepG2-A16-CD81EGFP cells; [10]): 103.33%
- HepG2 viability signal, 3 uM, repeat 2 (HepG2-A16-CD81EGFP cells): 103.42%
- Max Resp (signal direction of the dose response) [3]: Inactive

SMILES: O=C(NC1CC1)c1ccc(CSCc2ccccc2Cl)o1 [MLS001030935-01]
- activity at 1 µM [2, 11]: 16%
- activity at 1 µM [2, 12]: 12%
- activity at 3 µM [2, 13]: 1%
- activity at 3 µM [2, 14]: 9%
- Max Resp (signal direction of the dose response) [3]: Decrease
- AC50 [3, 15]: 0.2 µM
- AC50 [3, 16]: 0.2 µM
- viability at 48 h, 1 µM (in vitro): 111%
- viability at 48 h, 3 µM (in vitro): 100%

SMILES: CC(C)(C)C1CCc2[nH]c3ccccc3c(=O)c2C1 (centres unmarked) [MLS000109039-01]
- AC50 [1]: 1.88 µM
- Max Resp (signal direction of the dose response) [3]: Decrease
- AC50 [3, 15]: 0.282 µM
- AC50 [3, 16]: 0.282 µM
- viability at 48 h, 1 µM (in vitro): 89%
- viability at 48 h, 3 µM (in vitro): 88%
